The record followed here is patent US3966773A, “2-Substituted-3,4-epoxycyclopentan-1-ones, and 2-substituted-3,4-epoxycyclopentan-1-ols” (American Cyanamid Company, priority 1975, dated 1976).

In general, ED50 refers to the midpoint of the dose-response relation. What is called minimal effective dose is the lowest level tested that produced the effect sought. Higher therefore signals weaker potency.

The first assay concerns bronchospasms elicited by histamine. Briefly: Bronchodilator activity (Konzett assay), histamine as spasmogenic agent. Type of assay: in vivo, guinea pig. The settings on record: Cavia porcellus; three logarithmic cumulative intravenous doses. On the procedure:
(§1) Bronchodilator activity was determined in guinea pigs against bronchospasms elicited by intravenous injections of 5-hydroxytryptamine, histamine or acetylcholine by the Konzett procedure. [See J. Lulling, P. Lievens, F. El Sayed and J. Prignot, Arzeimittel-Forschung, 18 995 (1968).]
(§2) In the Table which follows bronchodilater activity for representative compounds of this invention against one or more of the three spasmogenic agents is expressed as an ED50 determined from the results obtained with three logarithemic cumulative intravenous doses.
The compound `CCCCCC(O)/C=C/[C@H]1CCC(=O)[C@@H]1CCCCCC(CC)C(=O)O` (stereo partly drawn) displayed an ED50 of 0.000145 mg/kg.

In the next assay the test system is bronchospasms elicited by acetylcholine. Put plainly: Bronchodilator activity (Konzett assay), acetylcholine as spasmogenic agent. Type of assay: in vivo, guinea pig. The settings on record: Cavia porcellus, read-out: Bronchodilator Activity ED50, spasmogenic agent acetylcholine; three logarithmic cumulative intravenous doses; read-out: Bronchodilator Activity ED50, spasmogenic agent choline. Here is the method: as §1, §2
With `CCCCCC(O)/C=C/[C@H]1CCC(=O)[C@@H]1CCCCCC(CC)C(=O)O` (stereo partly drawn), the ED50 was determined as 0.000533 mg/kg.

On to `CCCC#CC(O)CC[C@H]1CCC(=O)[C@@H]1CCCCCCC(=O)O` (stereo partly drawn) [9-oxo-15-hydroxy-16-prostynoic acid], for which the median effective dose (ED50) amounted to 0.00032 mg/kg.

Turning to `CCCCCC(O)/C=C\[C@H]1CCC(=O)[C@@H]1CCCCCCC(=O)O` (relative stereo) [9-oxo-15-hydroxy-13-cis-prostenoic acid, 15-hydroxy-9-oxo-13-cis-prostenoic acid], the ED50 came to 0.00032 mg/kg.

The next assay relates to diastolic blood pressure. Briefly: Hypotensive activity in anesthetized rats. Type of assay: in vivo, rat (male Wistar strain). The settings on record: Rattus norvegicus; intravenous; dose producing a decrease of about 10 mm. in diastolic blood pressure. Here is the method: This procedure is a modification of the technique described by Pike et al., Prostaglandins, Nobel Symposium 2, Stockholm, June, 1966; p. 165.
Male Wistar strain rats (Royal Hart Farms) averaging approximately 250 grams in weight were fastened to rat boards in a supine position by means of canvas vests and limb ties. The femoral area was infiltrated subcutaneously with lidocaine and the iliac artery and vein were exposed and cannulated. Arterial blood pressure (systolic/diastolic) was recorded using a Statham P23 Db pressure, the animals were anethetized before use with pentobarbital, 30 mg./kg. of body weight intravenously, and also were given hexamethoxium bitartrate, 2 mg./kg. of body weight intravenously. The test compounds were prepared by ultrasonic dispersion in a saline-Tween 80 vehicle. A constant intravenous dose volume of 0.5 ml. was administered and test doses ranged from 0.1 to 10.0 mg./kg. of body weight. Increasing or decreasing doses were selected depending on the dose response obtained. In Table 2B below are set forth the minimal doses required to produce a decrease of about 10 mm. in diastolic blood pressure for typical compounds of the present invention.
`CCCCCC(O)/C=C/[C@H]1CCCC(=O)[C@@H]1CCCCCCC(=O)O` (relative stereo) [9-oxo-15-hydroxy-10a-homo-13-trans-prostenoic acid] showed a minimal effective dose of 2 mg/kg.

In the case of `CCCCCC(O)/C=C/[C@H]1CCC(=O)[C@@H]1CCCCCC(CC)C(=O)O` (stereo partly drawn), the minimal effective dose is less than 2 mg/kg. The compound `CCCCCC(O)/C=C/[C@H]1CCC(=O)[C@]1(C)CCCCCCC(=O)O` (relative stereo) [9-oxo-8β-methyl-15-hydroxy-13-trans-prostenoic acid] registered a minimal effective dose of 2 mg/kg. Turning to `CCCC(C)(C)CC(O)/C=C/[C@H]1CCC(=O)[C@@H]1CCCCCCC(=O)O` (relative stereo) [9-oxo-15-hydroxy-17,17-dimethyl-13-trans-prostenoic acid], the minimal effective dose stood at 2 mg/kg.

Turning to `CCCCCC(O)/C=C/[C@H]1CCC(=O)[C@@H]1CCCCCC(F)C(=O)O` (relative stereo) [9-oxo-15-hydroxy-2-fluoro-13-trans-prostenoic acid], the minimal effective dose was determined as 8 mg/kg. `CCCCCC(O)/C=C/[C@H]1CCC(=O)[C@@H]1CCCCSCC(=O)O` (relative stereo) [9-oxo-15-hydroxy-3-thia-13-trans-prostenoic acid] gave a minimal effective dose of 2 mg/kg. `CCCCCC(O)/C=C/[C@H]1CCC(=O)[C@@H]1CCCCC(C)(C)CC(=O)O` (relative stereo) [9-oxo-15-hydroxy-3,3-dimethyl-13-trans-prostenoic acid] registered a minimal effective dose of 8 mg/kg. In turn, `CCCCCC(O)/C=C/[C@H]1CCCC(=O)[C@@H]1CCCCCCC(=O)OCC` (relative stereo) [Ethyl 9-oxo-15-hydroxy-10a-homo-13-trans-prostenoate] returned a minimal effective dose of 2 mg/kg. This minimal effective dose lies about 4-fold lower than the previous one. Same read-out and setting: the value for `CCCCC[C@@H](O)/C=C/[C@H]1CCC(=O)[C@@H]1CCCCCC(C(=O)O)c1ccccc1` (relative stereo) [2-phenyl-9-oxo-15-epi-hydroxy-13-trans-prostenoic acid] was 2 to 8 mg/kg; that for `CCC/C=C/C(O)CC[C@H]1CCC(=O)[C@@H]1CCCCCCC(=O)O` (relative stereo) [9-oxo-15-hydroxy-16-trans-prostenoic acid] was less than 2 mg/kg; that for `CCCCCC(O)/C=C/[C@H]1CCC(=O)[C@@H]1CCCCOCC(=O)OCC` (relative stereo) [Ethyl 9-oxo-15-hydroxy-3-oxa-13-trans-prostenoate] was 0.2 mg/kg. As for `CC/C=C\CC(O)/C=C/[C@H]1CCC(=O)[C@@H]1C/C=C\CCCC(=O)O` (relative stereo) [9-oxo-15-hydroxy-5-cis,13-trans,17-cis-prostatrienoic acid], the minimal effective dose is less than 2 mg/kg. On the same count and under the same terms, the value for `CCCCC[C@@H](O)/C=C/[C@H]1CCC(=O)[C@@H]1CCCCOCC(=O)O` (relative stereo) [3-oxa-9-oxo-15-epi-hydroxy-13-trans-prostenoic acid] was 1 to 2 mg/kg. The same measure, in the same setting: the value for `CCCCC(C)(C)C(O)/C=C/[C@H]1CCC(=O)[C@@H]1CCCCSCC(=O)O` (relative stereo) [9-oxo-15-hydroxy-16,16-dimethyl-3-thia-13-trans-prostenoic acid] was less than 2 mg/kg; that for `CC/C=C\CC(O)/C=C/[C@H]1CCC(=O)[C@@H]1CCCCCCC(=O)O` (relative stereo) [9-oxo-15-hydroxy-13-trans,17-cis-prostadienoic acid] was less than 2 mg/kg; that for `CCCCC[C@@H](O)/C=C/[C@H]1CCC(=O)[C@@H]1CCCCSCC(=O)O` (relative stereo) [3-thia-9-oxo-15-epi-hydroxy-13-trans-prostenoic acid] was 2 mg/kg. On the same count and under the same terms, the value for `CC/C=C\CC(C)(O)/C=C/[C@H]1CCC(=O)[C@@H]1C/C=C\CCCC(=O)O` (stereo partly drawn) [9-oxo-15-hydroxy-15-methyl-5-cis,13-trans,17-cis-prostatrienoic acid] was less than 2 mg/kg; that for `CCCCC(CC)C(O)/C=C/[C@H]1CCC(=O)[C@@H]1CCCCCCC(=O)O` (relative stereo) [9-oxo-15-hydroxy-16-ethyl-13-trans-prostenoic acid] was less than 8 mg/kg; that for `CCCCCC(O)/C=C/[C@H]1CCC(=O)[C@@H]1CCCCCC(C(=O)O)c1ccccc1` (relative stereo) [9-oxo-15-hydroxy-2-phenyl-13-trans-prostenoic acid] was 8 mg/kg. Regarding `CCCCC[C@@H](O)/C=C/[C@H]1CCCC(=O)[C@@H]1CCCCCCC(=O)O` (relative stereo) [9-oxo-10a-homo-15-epi-hydroxy-13-trans-prostenoic acid], the minimal effective dose is 2 mg/kg. `CCCC#CC(O)CC[C@H]1CCC(=O)[C@@H]1CCCCCCC(=O)O` (stereo partly drawn) [9-oxo-15-hydroxy-16-prostynoic acid] gave a minimal effective dose of 2 mg/kg. The compound `CCCCCC(O)/C=C/[C@H]1CCC(=O)[C@@H]1CCCCCC(C)C(=O)O` (relative stereo) [9-oxo-15-hydroxy-2-methyl-13-trans-prostenoic acid] yielded a minimal effective dose of 2 mg/kg. `CCCCCC(O)CC[C@H]1CCC(=O)[C@@H]1CCCCCC(CC)C(=O)O` (stereo partly drawn) [2-ethyl-9-oxo-15-hydroxy-prostanoic acid, 9-oxo-15-hydroxy-2-ethyl-prostanoic acid] registered a minimal effective dose of 0.2 mg/kg. Consider `CCCCC(C)(C)C(O)/C=C/[C@H]1CCC(=O)[C@@H]1CCCCOCC(=O)O` (relative stereo) [9-oxo-15-hydroxy-16,16-dimethyl-3-oxa-13-trans-prostenoic acid], for which the minimal effective dose is less than 2 mg/kg.

Take `CCCCC[C@@H](O)/C=C/[C@H]1CCC(=O)[C@@H]1CCCCCC(C)C(=O)O` (relative stereo) [2-methyl-9-oxo-15-epi-hydroxy-13-trans-prostenoic acid]: the minimal effective dose turned out to be 2 mg/kg. Compound `CCCCC[C@@H](O)/C=C/[C@H]1CCC(=O)[C@@H]1CCCCCC(CC)C(=O)O` (relative stereo) [2-ethyl-9-oxo-15-epi-hydroxy-13-trans-prostenoic acid] came in with a minimal effective dose of 2 to 4 mg/kg. The compound `CCCCC[C@@H](O)/C=C/[C@H]1CCC(=O)[C@@H]1CCCCOCC(=O)OCC` (relative stereo) [Ethyl 3-oxa-9-oxo-15-epi-hydroxy-13-trans-prostenoate] registered a minimal effective dose of 0.2 mg/kg. On the same count and under the same terms, the value for `CCCCCC(O)/C=C/[C@H]1CCC(=O)[C@@H]1CCCCCCCCC(=O)O` (relative stereo) [9-oxo-15-hydroxy-7a,7b-bishomo-13-trans-prostenoic acid] was less than 8 mg/kg; that for `CCCCC(C)(C)C(O)/C=C/[C@H]1CCC(=O)[C@@H]1CCCCCCC(=O)O` (relative stereo) [9-oxo-15-hydroxy-16,16-dimethyl-13-trans-prostenoic acid] was less than 2 mg/kg.

Compound `CCCCCC(O)/C=C\[C@H]1CCC(=O)[C@@H]1CCCCCCC(=O)O` (relative stereo) [9-oxo-15-hydroxy-13-cis-prostenoic acid, 15-hydroxy-9-oxo-13-cis-prostenoic acid] gave a minimal effective dose of 2 to 4 mg/kg. Take `CCCCCC(O)/C=C/[C@H]1CCC(=O)[C@@H]1CCCCOCC(=O)O` (relative stereo) [9-oxo-15-hydroxy-3-oxa-13-trans-prostenoic acid]: the minimal effective dose was less than 2 mg/kg.

The subject of a further assay is bronchospasms elicited by 5-hydroxytryptamine. Put plainly: Bronchodilator activity (Konzett assay), 5-hydroxytryptamine as spasmogenic agent. The settings on record: Cavia porcellus; three logarithmic cumulative intravenous doses. Type of assay: in vivo, guinea pig. Here is the method:
as §1, §2
`CCCCCC(O)/C=C/[C@H]1CCC(=O)[C@@H]1CCCCCC(CC)C(=O)O` (stereo partly drawn) yielded an ED50 of 0.000329 mg/kg.
